Measured values from publication PMC7854729 (Nature Communications, 2021).
Values joined by “and” are separate entries in the source; they are usually repeats but may differ in a detail not shown here. Identical values can stand only once. Like-named read-outs stand apart in the source and are kept apart here. Where a SMILES comes first, the peptide text is derived from it.

Columns and labels:
[1] = molecular target: SARS-CoV-2 PLpro (Severe acute respiratory syndrome coronavirus 2, UniProt P0DTD1); test: biochemical; settings: for PLpro assay signal (source data Figure 2, single replicates): listed as 4 (Snyder550)
[2] = test system: SARS-CoV-2; test: microbe, parasite or virus in culture; format: cell-based, SARS-CoV-2 (nCoV/Washington/1/2020) in Vero E6 cells; settings: for Percent Spike Positive Cells: relative to DMSO treated cells, single replicates
[3] = molecular target: T1, PLpro-WT (Severe acute respiratory syndrome coronavirus 2, UniProt P0DTD1); format: biochemical
T1 construct: PLpro is a domain of Nsp3—a large multidomain protein; made in house; host or cells: E. coli BL21(DE3)-Gold

Q: With `Nc1cc(C(=O)Nc2cccc3ccccc23)cc(C(F)(F)F)c1` [Compound 4] as the compound, how does the IC50 ([1]; IC50) read?
A: 43.2 ± 9.4 µM

Q: What about the “PLpro assay signal (source data Figure 2, single replicates)” value (“PLpro assay signal” for short) ([1]; Log(M) -0.30103) of the same compound?
A: 498 and 310 and 468

Q: And the “PLpro assay signal” value ([1]; Log(M) -0.60206)?
A: 426 and 463 and 490

Q: And the “PLpro assay signal” value ([1]; Log(M) -1)?
A: 617 and 632 and 562

Q: What about the “PLpro assay signal” value ([1]; Log(M) -1.30103) of the same compound?
A: 679 and 720 and 747

Q: What about the “PLpro assay signal” value ([1]; Log(M) -1.69897) of the same compound?
A: 956 and 920 and 944

Q: And the “PLpro assay signal” value ([1]; Log(M) -2)?
A: 1073 and 1048 and 930

Q: What about the “PLpro assay signal” value ([1]; Log(M) -2.39794) of the same compound?
A: 1192 and 1138 and 1087

Q: And the “PLpro assay signal” value ([1]; Log(M) -2.69897)?
A: 1318 and 1220 and 924

Q: And the “PLpro assay signal” value ([1]; Log(M) -3.09691)?
A: 1177 and 1051 and 1092

Q: What about the “PLpro assay signal” value ([1]; Log(M) -3.39794) of the same compound?
A: 1045 and 1012 and 1221

Q: What about the EC50 ([2]; Severe acute respiratory syndrome coronavirus 2, Vero C1008, 24 h, read-out: EC50) of the same compound?
A: 1.7 ± 4.4 µM

Q: And the “inhibition of virus replication” value ([2]; Vero E6, SARS-CoV-2)?
A: inhibiting virus replication

Q: And the “Percent Spike Positive Cells” value ([2]; [Drug] 0.1 uM)?
A: 75% and 100% and 88%

Q: And the “Percent Spike Positive Cells” value ([2]; [Drug] 1 uM)?
A: 88% and 81% and 63%

Q: What about the “Percent Spike Positive Cells” value ([2]; [Drug] 10 uM) of the same compound?
A: 0%

Q: Which results are given for `CC(=O)N[C@@H](CC(C)C)C(=O)N[C@@H](CCCCN)C(=O)NCC(=O)NCC(=O)Nc1ccc2c(C)cc(=O)oc2c1` [probe] (HELM PEPTIDE1{[ac].L.K.G.G.[Cc1cc(=O)oc2cc(N[*:1])ccc12]}$$$$V2.0)?
A: fluorescence ([3]; 0.1 M PLP, time point 8): 103 and 110 and 118; fluorescence normalised to probe only ([3]; 0.1 M PLP, time point 8): 2.146 and 2.292 and 2.458; fluorescence ([3]; 0.1 M PLP, time point 9): 107 and 115 and 122; fluorescence normalised to probe only ([3]; 0.1 M PLP, time point 9): 2.229 and 2.396 and 2.542; fluorescence ([3]; 0.1 M PLP, time point 10): 111 and 120 and 127; fluorescence normalised to probe only ([3]; 0.1 M PLP, time point 10): 2.3125 and 2.5 and 2.646; fluorescence ([3]; 0.1 M PLP, time point 11): 115 and 124 and 132; fluorescence normalised to probe only ([3]; 0.1 M PLP, time point 11): 2.396 and 2.583 and 2.75; fluorescence ([3]; 0.1 M PLP, time point 12): 115 and 129 and 133; fluorescence normalised to probe only ([3]; 0.1 M PLP, time point 12): 2.396 and 2.6875 and 2.771; fluorescence ([3]; 0.1 M PLP, time point 13): 120 and 131 and 139; fluorescence normalised to probe only ([3]; 0.1 M PLP, time point 13): 2.5 and 2.729 and 2.896; fluorescence ([3]; 0.1 M PLP, time point 14): 123; fluorescence normalised to probe only ([3]; 0.1 M PLP, time point 14): 2.5625 and 2.833 and 2.979; fluorescence ([3]; 0.2 M PLP, time point 8): 260 and 288 and 278; fluorescence normalised to probe only ([3]; 0.2 M PLP, time point 8): 5.417 and 6 and 5.792; fluorescence ([3]; 0.2 M PLP, time point 9): 295 and 313 and 300; fluorescence normalised to probe only ([3]; 0.2 M PLP, time point 9): 6.146 and 6.521 and 6.25; fluorescence ([3]; 0.2 M PLP, time point 10): 321 and 335 and 319; fluorescence normalised to probe only ([3]; 0.2 M PLP, time point 10): 6.6875 and 6.979 and 6.646; fluorescence ([3]; 0.2 M PLP, time point 11): 337 and 357 and 345; fluorescence normalised to probe only ([3]; 0.2 M PLP, time point 11): 7.021 and 7.4375 and 7.1875; fluorescence ([3]; 0.2 M PLP, time point 12): 357 and 377 and 368; fluorescence normalised to probe only ([3]; 0.2 M PLP, time point 12): 7.4375 and 7.854 and 7.667; fluorescence ([3]; 0.2 M PLP, time point 13): 379 and 400 and 381; fluorescence normalised to probe only ([3]; 0.2 M PLP, time point 13): 7.896 and 8.333 and 7.9375; fluorescence normalised to probe only ([3]; 0.2 M PLP, time point 14): 8.167 and 8.792 and 8.417; fluorescence ([3]; 0.3 M PLP, time point 8): 443 and 452 and 474; fluorescence normalised to probe only ([3]; 0.3 M PLP, time point 8): 9.229 and 9.417 and 9.875; fluorescence ([3]; 0.3 M PLP, time point 9): 481 and 493 and 520; fluorescence normalised to probe only ([3]; 0.3 M PLP, time point 9): 10.0208 and 10.2708 and 10.8333; fluorescence ([3]; 0.3 M PLP, time point 10): 519 and 530 and 558; fluorescence normalised to probe only ([3]; 0.3 M PLP, time point 10): 10.8125 and 11.0417 and 11.625; fluorescence ([3]; 0.3 M PLP, time point 11): 560 and 573 and 600; fluorescence normalised to probe only ([3]; 0.3 M PLP, time point 11): 11.6667 and 11.9375 and 12.5; fluorescence ([3]; 0.3 M PLP, time point 12): 594 and 609 and 643; fluorescence normalised to probe only ([3]; 0.3 M PLP, time point 12): 12.375 and 12.6875 and 13.3958; fluorescence ([3]; 0.3 M PLP, time point 13): 632 and 646 and 681; fluorescence normalised to probe only ([3]; 0.3 M PLP, time point 13): 13.1667 and 13.4583 and 14.1875; fluorescence ([3]; 0.3 M PLP, time point 14): 671 and 682 and 717; fluorescence normalised to probe only ([3]; 0.3 M PLP, time point 14): 13.9792 and 14.2083 and 14.9375; fluorescence ([3]; 0.5 M PLP, time point 8): 891 and 894 and 883; fluorescence normalised to probe only ([3]; 0.5 M PLP, time point 8): 18.5625 and 18.625 and 18.3958; fluorescence ([3]; 0.5 M PLP, time point 9): 972 and 978 and 964; fluorescence normalised to probe only ([3]; 0.5 M PLP, time point 9): 20.25 and 20.375 and 20.0833; fluorescence ([3]; 0.5 M PLP, time point 10): 1053 and 1058 and 1040; fluorescence normalised to probe only ([3]; 0.5 M PLP, time point 10): 21.9375 and 22.0417 and 21.6667; fluorescence ([3]; 0.5 M PLP, time point 11): 1137 and 1139 and 1118; fluorescence normalised to probe only ([3]; 0.5 M PLP, time point 11): 23.6875 and 23.7292 and 23.2917; fluorescence ([3]; 0.5 M PLP, time point 12): 1204 and 1214 and 1189; fluorescence normalised to probe only ([3]; 0.5 M PLP, time point 12): 25.0833 and 25.2917 and 24.7708; fluorescence ([3]; 0.5 M PLP, time point 13): 1275 and 1287 and 1260; fluorescence normalised to probe only ([3]; 0.5 M PLP, time point 13): 26.5625 and 26.8125 and 26.25; fluorescence ([3]; 0.5 M PLP, time point 14): 1338 and 1358 and 1327; fluorescence normalised to probe only ([3]; 0.5 M PLP, time point 14): 27.875; fluorescence ([3]; 1.0 M PLP, time point 8): 1812 and 1755 and 1796; fluorescence normalised to probe only ([3]; 1.0 M PLP, time point 8): 37.75 and 36.5625 and 37.4167; fluorescence ([3]; 1.0 M PLP, time point 9): 1958 and 1902 and 1937; fluorescence normalised to probe only ([3]; 1.0 M PLP, time point 9): 40.7917 and 39.625 and 40.3542; fluorescence ([3]; 1.0 M PLP, time point 10): 2101 and 2025 and 2064; fluorescence normalised to probe only ([3]; 1.0 M PLP, time point 10): 43.7708 and 42.1875 and 43; fluorescence ([3]; 1.0 M PLP, time point 11): 2228 and 2143 and 2197; fluorescence normalised to probe only ([3]; 1.0 M PLP, time point 11): 46.4167 and 44.6458 and 45.7708; fluorescence ([3]; 1.0 M PLP, time point 12): 2329 and 2259 and 2313; fluorescence normalised to probe only ([3]; 1.0 M PLP, time point 12): 48.5208 and 47.0625 and 48.1875; fluorescence ([3]; 1.0 M PLP, time point 13): 2450 and 2363 and 2423; fluorescence normalised to probe only ([3]; 1.0 M PLP, time point 13): 51.0417 and 49.2292 and 50.4792; fluorescence ([3]; 1.0 M PLP, time point 14): 2548 and 2459 and 2512
